Test results taken from ChEMBL document CHEMBL3988442, “University of Dundee, Small-Polar-MMV Screening Library” (2021).

How the values were obtained:
ClpP1P2 = ClpP1P2 (Mycobacterium tuberculosis (strain ATCC 25618 / H37Rv), UniProt P9WPC3+P9WPC5); test: in vitro assay to detect presence of AMC directly proportional to the activity of ClpP1P2. GHDDI collaboration.; format: functional
[1] = microbe, parasite or virus in culture; conditions: Mycobacterium tuberculosis, 72 h, read-out: pIC50 (converted)
[2] = microbe, parasite or virus in culture; conditions: Mycobacterium tuberculosis, 96 h, read-out: pIC50 (converted)
Plasmodium falciparum = test: Calibr Malaria Delayed Death Assay SOP; format: functional, organism-based; conditions: for IC50: Plasmodium falciparum

Sequence of ClpP1P2 (P9WPC5 whole entry): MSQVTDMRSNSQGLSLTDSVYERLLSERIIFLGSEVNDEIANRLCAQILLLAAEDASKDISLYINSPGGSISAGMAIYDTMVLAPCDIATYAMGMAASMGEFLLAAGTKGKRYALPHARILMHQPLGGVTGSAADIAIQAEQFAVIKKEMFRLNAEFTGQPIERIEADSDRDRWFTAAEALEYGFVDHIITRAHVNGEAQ
Sequence of ClpP1P2 (P9WPC3 whole entry): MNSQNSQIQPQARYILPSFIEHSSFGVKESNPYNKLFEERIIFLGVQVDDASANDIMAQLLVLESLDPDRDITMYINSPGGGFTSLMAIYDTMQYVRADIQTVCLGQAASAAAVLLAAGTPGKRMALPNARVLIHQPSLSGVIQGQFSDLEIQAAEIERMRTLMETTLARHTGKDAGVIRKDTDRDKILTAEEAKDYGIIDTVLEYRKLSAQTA

Row | SMILES | IC50 (ClpP1P2) | IC50 [1] | IC50 [2] | pIC50 (Plasmodium falciparum) | IC50 (Plasmodium falciparum)
1 | CN(C)c1ncc(C2Nc3ccccc3C3=NCCCN32)cn1 (stereo not given) | > 100000 nM |  |  |  | 
2 | c1cnc(Nc2cncc(C3CCCN3)n2)cn1 (stereo not given) | > 100000 nM |  |  |  | 
3 | COCCNc1nc(NCCc2ccccc2)nc2nccnc12 | > 100000 nM |  |  |  | 
4 | O=C(CCN1CCCC1c1cccc2c1OCCO2)N1CCCCC1 (stereo not given) |  | 25200 nM | > 50100 nM | 5.987 | 845 nM
5 | COCCN(C)Cc1cc(Cl)ccc1OCC(O)CN1CCCCCC1 (stereo not given) |  | > 50100 nM | 12400 nM | 6.019 | 953 nM
6 | Cc1ccc(CNCc2cccc3cccnc23)c(OC2CCOC2)c1 (stereo not given) |  | > 50100 nM | > 50100 nM | 6.31 | 619 nM
7 | CCCn1ccnc1CN1CCCC1c1ccccn1 (stereo not given) |  | > 50100 nM | > 50100 nM | 6.456 | 395 nM
8 | Cc1cc(Cc2cccc(C(F)(F)F)c2)cc(C2CCCNC2)n1 (stereo not given) |  | 25300 nM | 37900 nM | 6.047 | 1120 nM
9 | Cn1ccnc1CN(Cc1ccccn1)Cc1ccccc1Cl.O=C(O)CC(O)(CC(=O)O)C(=O)O |  | 45500 nM |  | 6.114 | 725 nM
10 | COc1ccc2[nH]c(CNc3cc(C4CCNCC4)nc(C)n3)cc2c1 |  | 14300 nM | 12400 nM | 5.758 | 1830 nM
11 | Cc1nc(-c2cc(Cl)c3c(c2)CC(CN)O3)c[nH]1 (stereo not given) |  | 2580 nM | 8330 nM | 5.986 | 1390 nM
12 | Cc1nc(-c2cc(Cl)cc3c2OC(CN)C3)c[nH]1 (stereo not given) |  | 13600 nM | > 50100 nM | 6.207 | 655 nM
13 | CCOc1cccc(CN2CCCC(Nc3ccc(F)cc3)C2)c1O (stereo not given) |  |  | 46100 nM | 6.217 | 577 nM
14 | OC1(CN2CCC(Oc3cccc(C(F)(F)F)c3)CC2)CCNC1 (stereo not given) |  | > 50100 nM |  | 6.152 | 690 nM
15 | CCc1[nH]c2c(CNc3cc(C)nc(NC)n3)cc(C)cc2c1C |  | 35700 nM | 40300 nM | 6.096 | 750 nM
16 | CC(Nc1nc(-c2ccccc2)nc2c1CCNCC2)c1cccnc1 (stereo not given) |  | 27600 nM | 28000 nM | 5.884 | 1460 nM
17 | Oc1ccc(Cl)cc1CNCc1cccc(C(F)(F)F)c1 |  | 43200 nM | 29100 nM | 6.177 | 653 nM
18 | CS(=O)(=O)CCCNC1(c2cccc(Cl)c2)CCCC1 |  | > 50100 nM | > 50100 nM | 6.268 | 870 nM
19 | c1cncc(-c2ccc3c(c2)CCC32CCNCC2)c1 |  | 46200 nM | 40900 nM | 5.939 | 1280 nM

Row | SMILES | IC50 (ClpP1P2) | IC50 [1] | IC50 [2] | pIC50 (Plasmodium falciparum) | IC50 (Plasmodium falciparum)
20 | CC[C@H]1CN2CC[C@H]1C[C@@H]2CNCc1ccc(OC(F)(F)F)cc1 |  | 31900 nM | 19800 nM | 6.073 | 806 nM
21 | CCc1cnc(N)nc1NC(C)c1ccc(C)c(C)c1 (stereo not given) |  | 23800 nM | 44100 nM | 6.042 | 893 nM
22 | c1ccc(C2CN(C3CC3)CC3(CCN(Cc4cscn4)CC3)C2)cc1 (stereo not given) |  | 26100 nM | 25700 nM | 6.129 | 969 nM
23 | CCOc1ccc(CN2CCCC(c3cc4ncccc4[nH]3)C2)cc1 (stereo not given) |  | 33600 nM | 24800 nM | 6.15 | 842 nM
24 | CC[C@H]1CN2CC[C@H]1C[C@@H]2CNC(=O)Nc1cc(OC)cc(OC)c1 |  | > 50100 nM | > 50100 nM | 6.272 | 762 nM
25 | CC1CCCCN1C(=O)c1coc(COc2cccc3cnccc23)n1 (stereo not given) |  | 44000 nM | 24400 nM | 6.214 | 616 nM
26 | Cc1cnn(CCCNCc2csc(COc3ccccc3)n2)c1 |  | 27800 nM | 11400 nM | 6.021 | 828 nM
27 | Cl.Cl.Clc1cccc(C[C@@H]2NCCC[C@@H]2Nc2ccccc2)c1 |  | 12000 nM | 16000 nM | 6.034 | 789 nM
28 | c1ccc(-c2nc3c(c(NCc4n[nH]c5c4CCC5)n2)CCNC3)cc1 |  | 25700 nM | 46100 nM | 6.219 | 902 nM
29 | O=C(CCN1CCCC(CO)(CC2CC2)C1)NCc1cccc(Cl)c1 (stereo not given) |  | > 50100 nM | > 50100 nM | 5.764 | 1320 nM
30 | Cc1ccc(-c2ccccc2CC2(C(=O)NC(C)C)CCCNC2)cc1 (stereo not given) |  |  |  | 6.259 | 491 nM
31 | CN(C)c1ccccc1CN1CCCCC1CNS(C)(=O)=O (stereo not given) |  |  |  | 6.043 | 1080 nM
32 | CC(NCC1CCN(CCO)CC1)c1ccc(OC(F)(F)F)cc1 (stereo not given) |  |  |  | 6.465 | 343 nM
33 | Fc1ccccc1Sc1ccccc1CNC1=NCCN1.I |  |  |  | 5.863 | 1610 nM
34 | CC(C)(NCc1cccc(O)c1)c1ccc2c(c1)OCO2 |  |  |  | 5.935 | 894 nM
35 | COc1cccc(CNCc2ccc(F)c(Cl)c2)c1O |  |  |  | 6.294 | 500 nM
36 | COCCCN1CCCN(C(C)C(=O)Nc2cccc(I)c2)CC1 (stereo not given) |  |  |  | 6.54 | 483 nM
37 | O=S(=O)(NC[C@H]1C[C@@H]2CCN1C[C@@H]2CN1CCCC1)c1ccc(Cl)cc1 |  |  |  | 5.945 | 1130 nM
38 | O=C(O)C(F)(F)F.O=C(O)C(F)(F)F.c1cncc(N2CCCC3(CCN(CCN4CCCC4)CC3)C2)c1 |  |  |  | 5.977 | 1020 nM

Row | SMILES | IC50 (ClpP1P2) | IC50 [1] | IC50 [2] | pIC50 (Plasmodium falciparum) | IC50 (Plasmodium falciparum)
39 | Cc1cccc(C2(NCCCS(C)(=O)=O)CCCC2)c1 |  |  |  | 6.254 | 659 nM
40 | CN1CCC(C2CCN(Cc3cccc(-n4cccn4)c3)CC2)C1 (stereo not given) |  |  |  | 6.139 | 656 nM
41 | Cc1noc(C)c1CN1C[C@H]2CN(Cc3cccc(F)c3)C[C@H]2C1.O=C(O)C(F)(F)F.O=C(O)C(F)(F)F |  |  |  | 5.762 | 1220 nM
42 | CN(C(=O)c1ccon1)[C@@H]1CCC[C@@H](Oc2ccccc2)[C@@H]1O |  |  |  | 5.983 | 1190 nM
43 | CC(O)CN1CCC(CN(C)Cc2cc(F)cc3cccnc23)CC1 (stereo not given) |  |  |  | 5.98 | 1120 nM
44 | Fc1cccc(CN2C[C@@H]3CN(Cc4ccccn4)C[C@@H]3C2)c1.O=C(O)C(F)(F)F.O=C(O)C(F)(F)F |  |  |  | 6.169 | 531 nM
45 | Cc1ccc(CN(c2cc(C)nc3nc(C(F)(F)F)nn23)C2CC2)cc1 |  |  |  | 6.41 | 282 nM
46 | CCN1CCN(C[C@@H]2CN(c3ncc(Cl)cc3F)C[C@@H]2CO)CC1 |  |  |  | 6.156 | 651 nM
47 | CN(CCO)C[C@@H]1CN(Cc2ccccc2-c2ccccc2)C[C@@H]1CO |  |  |  | 6.276 | 611 nM
48 | CC(C)=CCN1CCC2(CC1)c1ccccc1[C@@H](N1CCSCC1)[C@@H]2O |  |  |  | 5.994 | 991 nM
49 | Fc1ccc2c(C3=CCN(Cc4nnc(C5CCC5)o4)CC3)c[nH]c2c1 |  |  |  | 5.905 | 1700 nM
50 | Cc1cccc(C)c1Nc1noc2c1CN(C(=O)c1cn(C)cn1)CC2 |  |  |  | 6.709 | 190 nM
51 | Cc1cccc(OC(C)C(=O)NCC2(N(C)C)CCCC2)c1 (stereo not given) |  |  |  | 6.11 | 760 nM
52 | CCC[C@H]1CN(c2nc(CO)cs2)C[C@@H]1NC(=O)C1(COC)CC1 |  |  |  | 5.825 | 1600 nM
53 | CCc1cc(CNCc2ccccc2N(C)C2CCN(C)CC2)on1 |  |  |  | 6.107 | 828 nM
54 | CCn1ccnc1CN1CCCC(CO)(Cc2cccc(Cl)c2)C1 (stereo not given) |  |  |  | 6.076 | 575 nM
55 | Cc1ccc(C)c(OCCNC(=O)[C@@H]2CCCCN2)c1 |  |  |  | 6.461 | 362 nM
56 | Cn1ccnc1C(O)(CCNCc1ccc(Cl)o1)C(F)(F)F (stereo not given) |  |  |  | 5.844 | 1740 nM
57 | Cn1cc(CN2CCCC(CCc3ccc(F)cc3F)C2)cn1 (stereo not given) |  |  |  | 5.983 | 992 nM
